Laboratory results taken from PubChem BioAssay AID463074 (Broad Institute, 2010).
Calls of active or inactive are those of the source.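 How the source made its calls: active means AC50 no more than tenfold above the top dose tested, or full inhibition at every dose with a flat fit (cut at about 19 µM in these data); inconclusive means flat curve fit with inhibition between 30% and 70%, or poor fit; inactive means AC50 more than tenfold above the top dose tested.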

Tested on: HMLE_sh_eGFP viability, CellTiter-Glo luminescence, 72 h
Assay: viability loss of HMLE_sh_eGFP cells – cell-based, luminescence, counter-screen for HMLE_sh_ECad selective toxicity project, dose response (AID 463074);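 further: counterscreen control line to flag general toxicity for the HMLE_sh_ECad screen; potency for loss of viability as luminescence drops below DMSO wells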

Row | SMILES | AC50
1 | CN(CC(O)CON=C1c2ccccc2-c2ccccc21)S(=O)(=O)c1ccc(Br)cc1 (centres undefined) | 4.4 µM
2 | COc1cc(CN2CCN(c3cccc(Cl)c3)CC2)cc(OC)c1OC | 2.58 µM
3 | CCOC(=O)c1c(CSc2ccc(C)cc2)oc2ccc(O)cc12 | 5.05 µM
4 | CN(C(=O)COC(=O)/C=C/c1cccc([N+](=O)[O-])c1)C1CCS(=O)(=O)C1 (centres undefined) | 4.61 µM
5 | CCCCCC(=O)Nc1nc(C)c(-c2csc(Nc3cc(OC)ccc3OC)n2)s1 | 2.11 µM
6 | C=C1[C@@H](O)[C@@H]2O[C@]3(CC[C@H](/C=C/[C@@H](C)[C@@H]4CC(C)=CC5(O[C@H](C[C@@](C)(O)C(=O)OC)CC[C@H]5O)O4)O3)CC[C@H]2O[C@@H]1[C@@H](O)C[C@H](C)[C@H]1OC2(CCCCO2)CC[C@H]1C (some centres undefined) | < 0.16 µM
7 | CC1=[N+](C)c2ccc3ccccc3c2C1(C)C | > 19.5 µM (inactive)
8 | Nc1ccccc1N=Cc1c(O)n(CCC2=CCCCC2)c(=O)[nH]c1=O | > 19.5 µM (inactive)
9 | Cc1ccccc1N=C(NOCc1ccc(Cl)cc1Cl)c1nonc1N | 3.81 µM
10 | Cc1ccc(Cl)cc1N1CCN(CC(=O)NC2CCCc3ccccc32)CC1 (centres undefined) | 6.66 µM
11 | Cc1ccc(F)c([C@H]2C3C=CCC(c4ccccc4)C3C(=O)N2Cc2ccccc2)c1 (some centres undefined) | 6.52 µM
12 | CC(C)C[C@H]1CN=C(Nc2ccccc2)N1CC1CCC(C(C)(C)C)CC1 (some centres undefined) | 5.34 µM
13 | Cc1cccc(-n2ncc3c(N4CCCc5ccccc54)ncnc32)c1 | 7.68 µM
14 | CCCCc1ccc(NC(=O)CSc2nc(=O)n(CCN(CC)CC)c3c2CCC3)cc1 | 9.97 µM
15 | C=CCn1c(Sc2ncc([N+](=O)[O-])s2)n[nH]c1=O | 3.59 µM
16 | CCn1c(C)c(C)c2cc(C(=O)Nc3cccc(Cl)c3)ccc21 | 4.05 µM
17 | C=Cn1ccnc1P(=S)(c1ccc2c(c1)c1ccccc1n2CC)c1nccn1C=C | 2.18 µM
18 | Oc1ccc(C[C@@H]2CNC(=S)N2CCCCC2CCCCC2)cc1 | 6.13 µM
19 | COc1ccc(O)c(/C=N/Nc2nc(Nc3ccccc3)nc(-n3nc(C)cc3C)n2)c1 | 3.52 µM
20 | O=C(CN1CCCc2ccccc21)N/N=C/c1c(O)ccc2ccccc12 | 2.7 µM
21 | COc1ccc(-c2csc(NC(=S)NC(=O)/C=C/c3ccco3)n2)cc1Br | 1.98 µM
22 | Cc1cc(C)c(C(=O)/C=C/c2ccc(C(C)C)cc2)c(=O)[nH]1 | 10.1 µM
23 | CCOC(=O)C(=Cc1ccc(-n2cncn2)cc1)C(=O)OCC | 6.4 µM
24 | CCCc1cc(SCC(=O)Nc2c(C)n(C)n(-c3ccccc3)c2=O)n2c(nc3ccccc32)c1C#N | > 19.5 µM (inactive)
25 | N#CC(C#N)=C(C#N)c1ccc(Nc2ccccc2)cc1 | 3.14 µM

Row | SMILES | AC50
26 | O=C(NCc1cccnc1)/C(=C\c1ccc(-c2cccc(Cl)c2)o1)S(=O)(=O)c1ccccc1 | 3.13 µM
27 | CCCc1ccc(C(=O)NNc2ccc(F)cc2)cc1 | 1.99 µM
28 | N#Cc1c(-c2ccccc2)cc(-c2ccccc2)nc1SCCC(=O)O | 2.41 µM
29 | O=C(COC(=O)c1c2c(nc3ccccc13)/C(=C\c1cccs1)CCC2)Nc1ccccc1 | 2.77 µM
30 | CCn1c(=O)c(C(=O)NCc2ccccc2OC)c(O)c2ccccc21 | 17.4 µM
31 | CCOC(=O)c1c(C)oc2c1C(=O)c1ccccc1C2=O | 4.72 µM
32 | O=C(Nc1cc(C(F)(F)F)cc(C(F)(F)F)c1)Nc1cnn(-c2ccc([N+](=O)[O-])cc2)c1C(F)(F)F | 0.848 µM
33 | Cc1ccnc(Nc2nc(-c3ccc(O)cc3O)cs2)c1 | 14.9 µM
34 | CC(=O)Nc1ccc(OCC(O)CN2CCN(c3cc(Cl)ccc3C)CC2)cc1 (centres undefined) | 5.17 µM
35 | O=C(NCc1ccc(F)cc1)C(=O)Nc1nc(C23CC4CC(CC(C4)C2)C3)cs1 | 2.13 µM
36 | COc1cccc(/C=C/C(=O)c2ccc(NS(=O)(=O)c3ccc(C)cc3)cc2)c1 | 3.22 µM
37 | Cc1ccn2c(NC3CCCCC3)c(-c3cccc(-c4cccc(Cl)c4)c3)nc2c1 | 6.68 µM
38 | C[C@@H]1CC[C@]2(C(=O)O)CC[C@]3(C)C(=CCC4[C@]56CC[C@@](O)(OC5)C(C)(C)C6CC[C@]43C)C2[C@H]1C (some centres undefined) | 6.19 µM
39 | CCC/C(=C1/c2ccccc2C(=O)N1c1ccccc1)c1ccc2c(c1)OCCO2 | 4.08 µM
40 | CC(C)N1CCc2c(sc(NC(=O)c3cc(-c4cccs4)nc4ccccc34)c2C(N)=O)C1 | 12.9 µM
41 | Cc1cc(N2CCN(C)CC2)nc2ccc(NC(=S)N3CCN(c4ccc(F)cc4)CC3)cc12 | 5.94 µM
42 | CCCCc1oc2ccccc2c1C(=O)c1cc(I)c(OCCN(CC)CC)c(I)c1 | 6.92 µM
43 | CC1(C)C=C2[C@H]3CC[C@@H]4[C@@]5(C)CCC(=O)C(C)(C)[C@@H]5CC[C@@]4(C)[C@]3(C)CC[C@@]2(C(=O)O)CC1 | 3.58 µM
44 | CCCOc1ccc(/C=N/Nc2cc(N3CCOCC3)ncn2)c(O)c1 | 3.38 µM
45 | Cc1ccc(NC(=S)NC(NC(=O)Cc2cccc3ccccc23)C(Cl)(Cl)Cl)cc1 (centres undefined) | 3.41 µM
46 | CCN1CCN(CCCOc2ccc(-c3ccccc3)cc2)CC1 | 5.67 µM
47 | Cc1cc(C)nc(SCc2ccc(C(=O)N/N=C/c3cccc(O)c3O)cc2)n1 | 3.71 µM
48 | COc1cc2nc(CN3CC=C(c4ccccc4)CC3)[nH]c(=O)c2cc1OC | 3.39 µM
49 | CC1CCN(S(=O)(=O)c2ccc3c(c2)C(=NO)c2cc(S(=O)(=O)N4CCC(C)CC4)ccc2-3)CC1 | 1.01 µM
